{
  "source": "ChEMBL document CHEMBL1201862",
  "about": "“PubChem BioAssay data set” (2004)",
  "key": {"[1]": {"target": "T1, High affinity choline transporter 1 (Homo sapiens, UniProt Q9GZV3)", "T1 sequence (Q9GZV3 whole entry)": "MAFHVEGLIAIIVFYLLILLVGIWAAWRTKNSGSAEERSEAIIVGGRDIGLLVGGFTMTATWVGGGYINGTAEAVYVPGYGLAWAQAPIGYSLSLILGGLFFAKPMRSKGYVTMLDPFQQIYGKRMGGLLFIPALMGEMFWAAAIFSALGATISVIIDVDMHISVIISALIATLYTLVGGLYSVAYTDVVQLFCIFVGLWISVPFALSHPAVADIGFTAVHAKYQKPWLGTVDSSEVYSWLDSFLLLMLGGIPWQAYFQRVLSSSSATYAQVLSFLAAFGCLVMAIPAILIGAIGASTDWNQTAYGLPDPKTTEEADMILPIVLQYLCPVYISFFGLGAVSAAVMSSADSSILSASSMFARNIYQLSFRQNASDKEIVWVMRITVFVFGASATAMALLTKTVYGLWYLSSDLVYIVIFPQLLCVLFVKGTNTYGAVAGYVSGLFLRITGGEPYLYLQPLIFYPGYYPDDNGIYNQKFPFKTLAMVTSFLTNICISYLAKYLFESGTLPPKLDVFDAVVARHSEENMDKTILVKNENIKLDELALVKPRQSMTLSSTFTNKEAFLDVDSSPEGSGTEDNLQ", "test": "human choline transporter blockers, potency – cell-based, 5-point CRC, membrane potential dye, dose response (AID 504840)", "type": "functional"}, "[2]": {"target": "T1, High affinity choline transporter 1", "test": "human choline transporter blockers, potency – cell-based, 10-point CRC, membrane potential dye, dose response (AID 588401);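 further: membrane potential dye fluorescence of choline-evoked depolarization via CHT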", "type": "functional"}, "[3]": {"target": "Vascular endothelial growth factor receptor 2 (Homo sapiens, UniProt P35968)", "sequence (P35968 whole entry)": "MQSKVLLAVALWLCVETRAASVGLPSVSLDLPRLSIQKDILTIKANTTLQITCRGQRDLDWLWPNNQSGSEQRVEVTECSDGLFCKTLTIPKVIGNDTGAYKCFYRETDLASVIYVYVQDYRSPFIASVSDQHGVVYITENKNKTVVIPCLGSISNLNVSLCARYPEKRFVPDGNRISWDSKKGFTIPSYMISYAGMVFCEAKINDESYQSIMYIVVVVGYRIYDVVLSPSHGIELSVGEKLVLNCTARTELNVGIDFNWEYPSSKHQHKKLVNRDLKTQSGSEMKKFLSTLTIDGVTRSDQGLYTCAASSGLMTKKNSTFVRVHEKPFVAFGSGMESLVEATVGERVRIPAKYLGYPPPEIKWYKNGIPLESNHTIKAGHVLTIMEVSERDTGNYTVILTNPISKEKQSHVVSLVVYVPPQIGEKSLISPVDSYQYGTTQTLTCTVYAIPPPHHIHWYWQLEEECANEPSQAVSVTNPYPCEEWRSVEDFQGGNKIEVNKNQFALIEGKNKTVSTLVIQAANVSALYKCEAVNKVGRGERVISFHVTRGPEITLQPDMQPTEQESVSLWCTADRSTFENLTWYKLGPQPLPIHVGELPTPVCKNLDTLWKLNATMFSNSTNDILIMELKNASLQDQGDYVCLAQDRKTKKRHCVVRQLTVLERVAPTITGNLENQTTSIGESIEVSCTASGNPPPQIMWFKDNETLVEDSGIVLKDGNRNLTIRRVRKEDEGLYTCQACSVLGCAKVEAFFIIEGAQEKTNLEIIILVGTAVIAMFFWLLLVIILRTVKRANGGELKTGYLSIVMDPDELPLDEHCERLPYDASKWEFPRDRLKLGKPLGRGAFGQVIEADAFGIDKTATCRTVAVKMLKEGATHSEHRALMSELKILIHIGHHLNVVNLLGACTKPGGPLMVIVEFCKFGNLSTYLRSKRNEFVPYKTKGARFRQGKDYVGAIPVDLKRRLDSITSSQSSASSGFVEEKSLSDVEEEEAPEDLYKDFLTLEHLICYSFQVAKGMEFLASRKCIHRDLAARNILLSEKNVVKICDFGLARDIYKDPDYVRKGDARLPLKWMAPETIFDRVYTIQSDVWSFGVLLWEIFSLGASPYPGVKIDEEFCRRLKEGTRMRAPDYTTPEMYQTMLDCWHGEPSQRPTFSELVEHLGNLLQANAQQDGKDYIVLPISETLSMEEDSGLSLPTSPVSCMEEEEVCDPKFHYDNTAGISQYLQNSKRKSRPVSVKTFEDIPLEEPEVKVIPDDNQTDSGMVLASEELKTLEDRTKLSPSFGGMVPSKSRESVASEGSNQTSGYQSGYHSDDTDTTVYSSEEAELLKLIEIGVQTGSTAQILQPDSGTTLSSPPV", "type": "functional"}, "[4]": {"target": "T2, Aurora kinase A (Homo sapiens, UniProt O14965)", "T2 sequence (O14965 whole entry)": "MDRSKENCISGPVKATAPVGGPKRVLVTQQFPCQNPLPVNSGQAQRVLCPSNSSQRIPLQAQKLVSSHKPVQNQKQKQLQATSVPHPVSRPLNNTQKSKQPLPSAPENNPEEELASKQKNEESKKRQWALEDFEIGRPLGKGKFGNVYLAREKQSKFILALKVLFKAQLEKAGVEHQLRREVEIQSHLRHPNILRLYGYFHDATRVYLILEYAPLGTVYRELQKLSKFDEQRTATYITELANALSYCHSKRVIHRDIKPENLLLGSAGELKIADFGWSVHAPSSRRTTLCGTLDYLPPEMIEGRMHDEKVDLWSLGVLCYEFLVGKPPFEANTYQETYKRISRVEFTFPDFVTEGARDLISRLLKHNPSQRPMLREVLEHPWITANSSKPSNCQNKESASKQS", "type": "functional"}, "[5]": {"target": "Aurora kinase B (Homo sapiens, UniProt Q96GD4)", "sequence (Q96GD4 whole entry)": "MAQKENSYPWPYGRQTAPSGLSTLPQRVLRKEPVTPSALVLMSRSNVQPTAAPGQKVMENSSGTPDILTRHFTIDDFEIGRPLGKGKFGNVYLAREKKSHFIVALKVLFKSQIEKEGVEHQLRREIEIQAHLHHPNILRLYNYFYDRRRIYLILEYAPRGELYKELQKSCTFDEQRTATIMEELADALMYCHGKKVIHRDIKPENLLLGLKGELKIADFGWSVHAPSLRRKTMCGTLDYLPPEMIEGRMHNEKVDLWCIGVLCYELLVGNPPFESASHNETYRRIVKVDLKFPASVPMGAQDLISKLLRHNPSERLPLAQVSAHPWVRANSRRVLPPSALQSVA", "type": "functional"}, "[6]": {"target": "T3, Sentrin-specific protease 8 (Homo sapiens, UniProt Q96LD8)", "T3 sequence (Q96LD8 whole entry)": "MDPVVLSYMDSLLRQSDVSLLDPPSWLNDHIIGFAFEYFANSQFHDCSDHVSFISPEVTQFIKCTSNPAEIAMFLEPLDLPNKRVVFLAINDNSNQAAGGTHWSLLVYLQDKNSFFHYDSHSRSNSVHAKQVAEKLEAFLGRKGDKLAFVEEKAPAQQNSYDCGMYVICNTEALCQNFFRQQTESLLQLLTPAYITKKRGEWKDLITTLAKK", "type": "functional"}, "[7]": {"target": "T3, Sentrin-specific protease 8", "type": "functional", "remark": "listed apart in the source"}, "[8]": {"target": "T4, Beta-lactamase (Pseudomonas aeruginosa, UniProt Q79MP6)", "T4 sequence (Q79MP6 whole entry)": "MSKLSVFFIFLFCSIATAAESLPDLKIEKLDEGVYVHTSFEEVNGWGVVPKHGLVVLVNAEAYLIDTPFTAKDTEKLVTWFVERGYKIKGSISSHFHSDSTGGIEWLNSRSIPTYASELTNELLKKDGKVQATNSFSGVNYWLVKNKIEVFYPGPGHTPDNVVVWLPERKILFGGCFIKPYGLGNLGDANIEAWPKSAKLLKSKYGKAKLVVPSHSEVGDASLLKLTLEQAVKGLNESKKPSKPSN", "test": "[…] counterscreen for selective VIM-2 inhibitors: dose response biochemical high throughput screening assay to identify inhibitors of IMP-1 metallo-beta-lactamase."}, "[9]": {"target": "T4, Beta-lactamase", "test": "inhibition of IMP-1 beta-lactamase activity – biochemical, epi-absorbance, selectivity assay for VIM-2 inhibitor project, dose response (AID 1920)"}, "[10]": {"target": "Beta-lactamase (Salmonella choleraesuis (strain SC-B67), UniProt Q5J463)", "sequence (Q5J463 whole entry)": "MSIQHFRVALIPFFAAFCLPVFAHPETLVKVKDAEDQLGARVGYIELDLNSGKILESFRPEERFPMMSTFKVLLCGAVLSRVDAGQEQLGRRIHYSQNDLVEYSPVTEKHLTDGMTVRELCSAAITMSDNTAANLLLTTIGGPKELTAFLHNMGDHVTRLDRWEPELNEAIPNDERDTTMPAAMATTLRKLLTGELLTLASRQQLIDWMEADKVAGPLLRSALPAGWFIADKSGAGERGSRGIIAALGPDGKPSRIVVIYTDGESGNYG", "test": "Epi-absorbance-based counterscreen for selective VIM-2 inhibitors: dose response biochemical high throughput screening assay to identify inhibitors of TEM-1 serine-beta-lactamase."}, "[11]": {"target": "T5, Small ubiquitin-related modifier 1 (Homo sapiens, UniProt P63165)", "T5 sequence (P63165 whole entry)": "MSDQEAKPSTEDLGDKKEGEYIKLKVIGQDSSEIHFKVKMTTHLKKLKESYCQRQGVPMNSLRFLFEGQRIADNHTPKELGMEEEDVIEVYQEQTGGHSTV", "test": "SUMO1 protein-protein binding blockers, potency – biochemical, FRET, dose response (AID 624383)", "type": "functional", "details": "read-out: IC50_Mean"}, "[12]": {"target": "T5, Small ubiquitin-related modifier 1", "test": "SUMO1 protein interaction blockers, potency – biochemical, fluorescence polarization, uHTS hits, dose response (AID 624382)", "type": "functional", "details": "read-out: IC50_Mean"}, "[13]": {"target": "T6, Small ubiquitin-related modifier 2 (Homo sapiens, UniProt P61956)", "T6 sequence (P61956 whole entry)": "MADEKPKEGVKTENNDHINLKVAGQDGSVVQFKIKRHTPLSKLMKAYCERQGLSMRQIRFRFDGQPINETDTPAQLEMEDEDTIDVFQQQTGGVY", "test": "disruption of SUMO2 interaction with SIM peptide – biochemical, fluorescence polarization, uHTS hits, selectivity assay for SUMO1 interaction inhibitor project, dose response (AID 624385)", "type": "functional", "details": "read-out: IC50_Mean"}, "[14]": {"target": "T6, Small ubiquitin-related modifier 2", "test": "SUMO2 binding disruption by SUMO1 hits – biochemical, FRET, human SUMO2, uHTS hits, selectivity assay for SUMO1 interaction inhibitor project, dose response (AID 624384)", "type": "functional", "details": "read-out: IC50_Mean"}, "[15]": {"target": "Long-chain-fatty-acid--AMP ligase FadD28 (Mycobacterium tuberculosis, UniProt P9WQ59)", "sequence (P9WQ59 whole entry)": "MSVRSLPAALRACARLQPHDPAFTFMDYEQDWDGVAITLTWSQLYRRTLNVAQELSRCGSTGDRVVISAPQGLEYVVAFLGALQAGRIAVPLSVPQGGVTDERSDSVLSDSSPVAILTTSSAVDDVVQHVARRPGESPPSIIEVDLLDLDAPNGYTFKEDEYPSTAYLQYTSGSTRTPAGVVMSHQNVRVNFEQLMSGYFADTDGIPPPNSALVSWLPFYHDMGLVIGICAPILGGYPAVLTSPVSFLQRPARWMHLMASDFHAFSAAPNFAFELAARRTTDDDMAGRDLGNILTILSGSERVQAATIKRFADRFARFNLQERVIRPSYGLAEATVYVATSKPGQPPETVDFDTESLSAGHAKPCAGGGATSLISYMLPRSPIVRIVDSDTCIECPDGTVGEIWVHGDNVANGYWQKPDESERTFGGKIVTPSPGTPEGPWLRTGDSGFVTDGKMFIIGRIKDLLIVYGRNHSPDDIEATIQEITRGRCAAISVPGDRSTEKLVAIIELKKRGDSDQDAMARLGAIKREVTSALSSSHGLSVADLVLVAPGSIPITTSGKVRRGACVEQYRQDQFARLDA", "test": "Fluorescence polarization aasay to screen for inhibitors that compete for the binding of FadD28 to a bisubstrate Measured in Biochemical System Using Plate Reader - 2147-01_Inhibitor_Dose_CherryPick_Activity.", "type": "functional, Mycobacterium tuberculosis H37Rv"}, "[16]": {"test": "Fluorescence-based cell-based high throughput dose response assay for inhibitors of the interaction of nucleotide-binding oligomerization domain containing 2 (NOD2) and the receptor-interacting serine-threonine kinase 2 (RIPK2).", "type": "functional", "details": "Homo sapiens"}, "[17]": {"target": "Beta Lactamase (Pseudomonas aeruginosa, UniProt Q932Y6)", "sequence (Q932Y6 whole entry)": "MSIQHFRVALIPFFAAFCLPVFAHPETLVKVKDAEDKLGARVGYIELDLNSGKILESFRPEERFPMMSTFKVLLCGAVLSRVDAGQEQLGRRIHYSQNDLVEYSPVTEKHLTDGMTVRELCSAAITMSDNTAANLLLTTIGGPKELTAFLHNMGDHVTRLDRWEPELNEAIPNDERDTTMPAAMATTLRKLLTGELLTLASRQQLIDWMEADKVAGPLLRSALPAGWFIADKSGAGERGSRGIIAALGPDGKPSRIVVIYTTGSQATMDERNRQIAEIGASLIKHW", "test": "BLA reporter interference, concentration series – BLA reporter cells, FRET fluorescence, artefact control for NOD2-RIPK2 interaction inhibitor project, dose response (AID 651552)", "type": "functional, cell-based"}, "[18]": {"test": "viability of uninfected HEp-2 cells – cell-based, HTS, cytotoxicity control for RSV inhibitor project, dose response (AID 2410)", "type": "functional", "details": "human respiratory syncytial virus"}, "[19]": {"target": "Beta-galactosidase (Escherichia coli, UniProt Q8VNN2)", "sequence (Q8VNN2 whole entry)": "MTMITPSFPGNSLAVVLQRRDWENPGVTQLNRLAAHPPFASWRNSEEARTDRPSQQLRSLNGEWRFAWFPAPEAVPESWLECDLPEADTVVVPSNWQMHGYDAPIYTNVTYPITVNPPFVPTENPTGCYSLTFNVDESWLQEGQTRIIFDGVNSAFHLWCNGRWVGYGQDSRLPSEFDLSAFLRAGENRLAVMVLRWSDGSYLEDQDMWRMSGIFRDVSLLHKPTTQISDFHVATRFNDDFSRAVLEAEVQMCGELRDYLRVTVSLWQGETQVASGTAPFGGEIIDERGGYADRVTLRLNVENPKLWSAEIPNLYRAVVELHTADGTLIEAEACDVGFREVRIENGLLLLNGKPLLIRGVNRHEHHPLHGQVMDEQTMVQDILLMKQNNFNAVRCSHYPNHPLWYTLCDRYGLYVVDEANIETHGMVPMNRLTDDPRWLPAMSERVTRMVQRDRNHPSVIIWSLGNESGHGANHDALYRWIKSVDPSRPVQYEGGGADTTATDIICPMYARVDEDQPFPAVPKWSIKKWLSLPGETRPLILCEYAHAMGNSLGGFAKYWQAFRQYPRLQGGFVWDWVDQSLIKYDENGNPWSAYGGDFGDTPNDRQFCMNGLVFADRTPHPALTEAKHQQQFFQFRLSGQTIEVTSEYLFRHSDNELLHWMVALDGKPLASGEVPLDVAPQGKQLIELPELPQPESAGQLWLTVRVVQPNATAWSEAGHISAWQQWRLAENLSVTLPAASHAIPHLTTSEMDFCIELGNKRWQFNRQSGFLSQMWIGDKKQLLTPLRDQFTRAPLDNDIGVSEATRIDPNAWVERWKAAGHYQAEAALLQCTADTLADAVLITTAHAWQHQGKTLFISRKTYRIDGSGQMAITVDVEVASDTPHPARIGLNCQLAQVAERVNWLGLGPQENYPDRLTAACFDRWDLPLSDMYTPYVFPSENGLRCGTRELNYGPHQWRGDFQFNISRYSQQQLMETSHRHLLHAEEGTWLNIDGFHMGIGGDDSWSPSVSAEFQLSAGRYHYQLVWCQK", "test": "Dose response counterscreen for EBI2 assay utilizing the enzyme, b-galactosidase.", "type": "functional"}, "[20]": {"test": "cells"}},
  "note": "Active and inactive are the calls of the source.",
  "data": [
    {"compound": "O=C(NCCCn1ccnc1)c1cnn2c1NC(c1ccccc1)CC2C(F)(F)F", "note": "(stereo not given)", "values": [
      {"measurement": "IC50", "setting": "[1]", "result": "8.15 µM (active)"},
      {"measurement": "IC50", "setting": "[2]", "result": "4.47 µM (active)"}
    ]},
    {"compound": "O=S(=O)(Nc1ccc2c(c1)C(=NO)c1ccccc1-2)c1cccc(Cl)c1", "values": [
      {"measurement": "Ki", "setting": "[3]", "result": "3.16 µM (active)"},
      {"measurement": "Ki", "setting": "[4]", "result": "> 2 µM (inactive)"},
      {"measurement": "Ki", "setting": "[5]", "result": "0.00398 µM (active)"}
    ]},
    {"compound": "Cn1c(NNC(=O)c2c(F)cccc2F)cc(=O)n(C)c1=O", "values": [
      {"measurement": "IC50", "setting": "[6]", "result": "12.5 µM (active)"},
      {"measurement": "IC50", "setting": "[7]", "result": "28 µM (active)"}
    ]},
    {"compound": "Cc1cccc(-n2c(C)nnc2S)c1C", "values": [
      {"measurement": "IC50", "setting": "[8]", "result": "> 59.6 µM (inactive)"},
      {"measurement": "IC50", "setting": "[9]", "result": "> 59.6 µM (inactive)"},
      {"measurement": "IC50", "setting": "[10]", "result": "> 59.6 µM (inactive)"}
    ]},
    {"compound": "COc1ccc(-c2csc(/C(C#N)=C\\c3ccc(O)c([N+](=O)[O-])c3)n2)cc1OC", "values": [
      {"measurement": "IC50", "setting": "[11]", "result": "52.1 µM (inactive)"},
      {"measurement": "IC50", "setting": "[12]", "result": "51.3 µM (inactive)"},
      {"measurement": "IC50", "setting": "[13]", "result": "35.7 µM (inactive)"},
      {"measurement": "IC50", "setting": "[14]", "result": "> 66 µM (inactive)"}
    ]},
    {"compound": "CC(C)(C)c1ccc(NC(=O)Nc2ccc(OCC(=O)N3CCOCC3)cc2)cc1", "values": [
      {"measurement": "AC50", "setting": "[15]", "result": "41.4 µM (active)"}
    ]},
    {"compound": "CC(=O)O/N=C1C=C/C(=C(\\C#N)c2ccccc2)C=C/1", "values": [
      {"measurement": "IC50", "setting": "[16]", "result": "5.83 µM (active)"},
      {"measurement": "IC50", "setting": "[17]", "result": "49.8 µM (inactive)"}
    ]},
    {"compound": "COc1ccc(-c2cc3nc(-c4ccccc4)cc(N4CCC(O)CC4)n3n2)cc1", "values": [
      {"measurement": "CC50", "setting": "[18]", "result": "17 µM (active)"},
      {"measurement": "IC50", "setting": "[19]", "result": "> 80 µM (inactive)"},
      {"measurement": "IC50", "setting": "[20]", "result": "34.9 µM (active)"}
    ]}
  ]
}
